# Square brackets hold non-standard residues; d marks the D form. Peptide text beside a SMILES is read from it.
# Columns and labels:
# chymotrypsin = assay: Protease stability assay (antimicrobial activity after protease digestion); format: in vitro ADME; conditions: peptide–enzyme 10,000:1, PBS, 6 h at 37 °C preincubation, then E. coli and A. baumannii, 16 h at 37 °C, 600 nm, repeated three times
# Method: (§1) For stability analysis, all Pro-peptides at their MICs were incubated with trypsin and chymotrypsin at the ratio of 10,000:1 (peptide–enzyme) in PBS for 6 h at 37 °C. After incubation, 100 μL of peptide-protease mixture was added to the 100 μL bacterial suspension (E. coli and A. baumannii, 2 × 10^5 CFU/mL) and further incubated for 16 h at 37 °C. Melittin was used as standard peptide, and bacterial suspension without peptide and protease served as control. The experiment was repeated three times, and the extent of bacterial growth was measured at 600 nm using a microplate reader.
# trypsin = assay: as above; format: in vitro ADME; conditions: peptide–enzyme 10,000:1, PBS, 6 h at 37 °C preincubation, then E. coli and A. baumannii, 16 h at 37 °C, 600 nm, repeated three times
# Method: as §1
# all bacterial strains = assay: Mean MIC over all bacterial strains (GM); format: cell-based; conditions: mean MIC of all bacterial strains of Table 2
# Method: Briefly, the microplates were inoculated with two-fold serial dilutions of each peptides in Mueller–Hinton (MH) media and then seeded with log-phase culture of aforementioned bacterial suspensions (2 × 10^5 CFU/mL). The microplates were incubated for 16 h at 37 °C, and absorbance was read at 600 nm using microplate reader SpectraMAX (Molecular Devices, San Jose, CA, USA).
# E. coli K1-infected mice = assay: E. coli K1 septic shock mouse model; format: in vivo
# Method: For sepsis model, we used E. coli K1 as an infection strain [47], and mice were randomly sorted in to 6 groups (5 mice/group). Control mice received I.P. injection of phosphate buffered saline (PBS, pH = 7.4) whereas Pro10-1 and Pro10-1D were injected with 1 mg/Kg and served as a peptide control. Mice infected with E. coli K1 (6 × 10^6 CFU/mouse, I.P.) served as a sepsis control. For treatment measures, mice were pretreated with 1 mg/kg of the respective peptides for 1 h and then infected with E. coli K1 like the septic mice. After 16 h, mice were euthanized by cervical dislocation under overdose of ether anesthesia. The blood samples, lung, liver, and kidney tissues were excised and processed for biochemical and histological analysis. Briefly, organ lysates of lung, liver, and kidney harvested from ice-cold PBS were evaluated for number of bacterial colonies. Endotoxin levels in the serum contents were quantified according to the kit protocol using Pierce LAL Chromogenic Endotoxin Quantitation Kit (Thermo Fisher Scientific, MA, USA). The levels of AST, ALT, and BUN in serum and the inflammatory cytokine levels in the serum or lung lysates were quantified as described previously.
# Lung tissues of the control and an experimental group of mice fixed by paraformaldehyde (4% v/v) were evaluated for histological changes. Briefly, […] lung tissue sections were deparaffinized in xylene, rehydrated with graded ethanol, and then stained with H&E stain. The stained section was examined for neutrophil infiltration and other morbid changes with a light microscope (Eclipse Ni; Nikon, Tokyo, Japan).
# [1] = LPS neutralization, limulus amebocyte lysate (LAL) assay; format: biochemical, Escherichia coli O111:B4; conditions: 50 μM peptide, 20 ng/mL LPS, 30 min at 37 °C, LAL chromogenic kit, 405 nm; triplicate
# Method: The LPS-neutralizing activity of all peptides was determined using the Pierce LAL chromogenic endotoxin quantitation kit (ThermoFisher Scientific, MA, USA). All peptides including standard (Polymixin B) at varying concentrations (3.12, 6.25, 12.5, 25, and 50 μM in endotoxin-free water) were allowed to bind with 20 ng/mL of LPS in a 96-well plate for 30 min at 37 °C. To this, an equal volume (10 μL) of LAL reagent was added and incubated for 10 min at 37 °C and then 20μL of LAL chromogenic substrate was added. After 15 min incubation at 37 °C, the reaction was stopped by 25% acetic acid and the reduction in yellow color formation due to the substrate was measured at 405 nm on an absorbance microplate reader. The experiment was conducted in triplicate, and the changes in absorbance due to peptide-LPS interaction are indicated as percent LPS neutralization.
# [2] = 1 mg/kg I.P. 1 h before E. coli K1 6 × 10^6 CFU/mouse I.P., 16 h, 5 mice/group
# [3] = 1 mg/kg I.P. pretreatment, septic mice, ELISA
# [4] = 1 mg/kg I.P. pretreatment, E. coli K1-infected mice = 100%
compound,measurement,setting,value
CC[C@@H](C)[C@@H](NC(=O)[C@@H](C)NC(=O)[C@@H](CC(C)C)NC(=O)[C@@H](Cc1c[nH]c2ccccc12)NC(=O)[C@@H](CC(C)C)NC(=O)[C@@H](CCCNC(=N)N)NC(=O)[C@H](N)CCCNC(=N)N)C(=O)N[C@H](Cc1c[nH]c2ccccc12)C(=O)N[C@H](CCCNC(=N)N)C(=O)N[C@H](CCCNC(=N)N)C(N)=O [Pro10-1D] (H-[dR][dR][dL][dW][dL][dA][dI][dW][dR][dR]-NH2; N-terminus assumed),protease resistance (retention of bactericidal activity),chymotrypsin,substantial protease resistance
same,protease resistance (retention of bactericidal activity),chymotrypsin; listed as enantiomeric Pro10-1,retained its bactericidal activity
same,protease resistance (retention of bactericidal activity),trypsin,substantial protease resistance
same,protease resistance (retention of bactericidal activity),trypsin; listed as enantiomeric Pro10-1,retained its bactericidal activity
same,GM (geometric mean of MIC values of all bacterial strains),all bacterial strains,4.86 µM
same,reduction of the number of bacteria in kidney,E. coli K1-infected mice; [2],~71%
same,reduction of the number of bacteria in liver,E. coli K1-infected mice; [2],~87%
same,reduction of the number of bacteria in lung,E. coli K1-infected mice; [2],approximately 73%
same,"lung pathological changes (PMN infiltration), H&E histology","E. coli K1-infected mice; 1 mg/kg I.P. pretreatment, E. coli K1-infected mice",effectively alleviated the pathological changes
same,suppression of IL-6 level in lung tissue,E. coli K1-infected mice; [3],62%
same,suppression of IL-6 level in serum,E. coli K1-infected mice; [3],56%
same,suppression of TNF-α level in lung tissue,E. coli K1-infected mice; [3],51%
same,suppression of TNF-α level in serum,E. coli K1-infected mice; [3],45%
same,reduction of serum endotoxin levels (LAL test),E. coli K1-infected mice; [4],over 33%
same,serum ALT level reduced to,E. coli K1-infected mice; [4],48%
same,serum AST level reduced to,E. coli K1-infected mice; [4],26%
same,serum BUN level reduced to,E. coli K1-infected mice; [4],37%
same,inhibition of the activation of LPS (LPS neutralization),[1],58.45%

# From PMC7504360 (International Journal of Molecular Sciences, 2020)
